Like-named read-outs stand apart in the source and are kept apart here.
Assays:
[1] = rat; cited from earlier work
[2] = tests on humans; cited from earlier work
HMG-CoA reductase = target: T1, HMG-CoA reductase (Rattus norvegicus, UniProt P51639); test: HMG-CoA reductase activity in enzyme preparations; assay type: biochemical, rats; details: solubilized enzyme from rat liver microsomes, 14C-HMG-CoA substrate; read-out: IC50, molar concentration of the compound required for 50% inhibition of HMG-CoA reductase
T1 construct: solubilized enzyme preparations from liver microsomes of rats; from tissue; host or cells: rat liver microsomes, solubilized; rats induced with cholestyramine (Cuemid)
T1 sequence (P51639 1-887): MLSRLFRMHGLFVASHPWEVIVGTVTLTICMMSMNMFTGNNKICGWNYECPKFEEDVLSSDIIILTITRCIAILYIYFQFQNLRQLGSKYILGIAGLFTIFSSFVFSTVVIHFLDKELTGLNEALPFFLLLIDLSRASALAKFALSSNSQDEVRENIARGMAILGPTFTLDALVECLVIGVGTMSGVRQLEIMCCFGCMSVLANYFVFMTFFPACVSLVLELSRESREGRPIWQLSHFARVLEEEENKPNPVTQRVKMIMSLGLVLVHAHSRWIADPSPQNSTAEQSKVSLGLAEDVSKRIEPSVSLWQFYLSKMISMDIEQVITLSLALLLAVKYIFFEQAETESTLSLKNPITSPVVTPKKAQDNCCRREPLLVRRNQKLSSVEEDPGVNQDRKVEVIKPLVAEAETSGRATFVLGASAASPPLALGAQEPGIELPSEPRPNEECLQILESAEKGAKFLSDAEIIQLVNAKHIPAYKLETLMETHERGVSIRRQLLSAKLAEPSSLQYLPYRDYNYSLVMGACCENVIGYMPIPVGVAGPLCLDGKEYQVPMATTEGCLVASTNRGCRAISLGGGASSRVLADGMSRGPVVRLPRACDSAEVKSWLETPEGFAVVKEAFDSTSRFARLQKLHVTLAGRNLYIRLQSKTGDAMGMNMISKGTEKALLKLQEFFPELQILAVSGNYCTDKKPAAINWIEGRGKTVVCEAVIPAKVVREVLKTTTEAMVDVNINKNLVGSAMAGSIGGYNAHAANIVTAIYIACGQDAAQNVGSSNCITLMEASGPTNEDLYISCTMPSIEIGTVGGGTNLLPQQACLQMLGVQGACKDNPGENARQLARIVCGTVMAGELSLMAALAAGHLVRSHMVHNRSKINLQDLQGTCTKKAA
Description: The HMG-CoA reductase activity was measured on solubilized enzyme preparations from liver microsomes of rats which, after changing over the day/night rhythm, were induced with cholestyramine (®Cuemid).
The substrate used was (S,R)^14 C-HMG-CoA, and the concentration of NADPH was maintained during the incubation by a regenerating system. ^14 C-mevalonate was removed from the substrate and other products (for example ^14 C-HMG) by column elution, with the elution profile of each individual sample being determined. ^3 H-mevalonate was not included in every test because the determination was of the relative inhibitory effect. In each series of tests, the enzyme-free control, the enzyme-containing normal mixture (=100%) and one with added product, final concentration 10^-5 to 10^-9 M, were treated together. Each individual value was formed as the mean of 3 parallel samples. The significance of the differences between the means for product-free and product-containing samples was assessed by the t test.
The method described above was used to determine the figures for the inhibition of HMG-CoA reductase by the compounds according to the invention (IC50 /mol/liter signifies the molar concentration of the compound required for 50% inhibition): […]

[3] = tested on: cholesterol biosynthesis in HEP-G2 cells; test: Inhibition of cholesterol biosynthesis in cell cultures of HEP-G2 cells; assay type: cell-based; details: Homo sapiens, HepG2, 14C-acetate precursor, read-out: IC50, concentration which brings about 50% inhibition of cholesterol biosynthesis
Description: Monolayers of HEP-G2 cells in lipoprotein-free nutrient medium were pre-incubated with appropriate concentrations of the test substances for a defined time (for example 1 hour) and, after addition of the labeled precursor, for example sodium ^14 C-acetate, incubation was continued (for example for 3 hours). After addition of an internal standard (^3 H-cholesterol) a portion of the cells was hydrolyzed with alkali. The lipids from the hydrolyzed cells were extracted with chloroform/methanol.
This Lipid mixture was, after addition of carrier cholesterol, subjected to preparative thin-layer chromatography, the cholesterol band was visualized with iodine vapor and then isolated, and the amount of ^14 C-cholesterol formed from the ^14 C-precursor was determined by scintigraphy. Cellular protein was determined in an aliquot of the cells, so that it is possible to calculate the amount of ^14 C-cholesterol formed per unit time per mg of cellular protein. Comparison of this figure with the amount of ^14 C-cholesterol formed per mg of cellular protein and unit time in a culture treated in the same way but free of test substance yielded the inhibitory effect of the particular test product on cholesterol biosynthesis of HEP-G2 cell cultures. […]

Row | SMILES | cholesterol-lowering action [1] | cholesterol-lowering action [2] | IC50 (HMG-CoA reductase) | IC50 [3]
1 | CC(O)(CC(=O)O)CC(=O)O [3-Hydroxy-3-methylglutaric acid] | significant cholesterol-lowering action | significant cholesterol-lowering action |  | 
2 | CC(C)c1nnc(-c2ccc(F)cc2)c(-c2ccc(F)cc2)c1/C=C/[C@@H](O)C[C@@H](O)CC(=O)O (relative stereo) [Example 13a, Sodium 7-[3,4-di(4-fluorophenyl)-6-isopropylpyridazin-5-yl]-3,5-dihydroxy-6-heptenoate] |  |  | 1.7 nM | 50 nM
3 | CC(C)c1nnc(-c2ccc(F)cc2)c(-c2ccc(F)cc2)c1/C=C/[C@@H](O)C[C@@H](O)CC(=O)O [Example 19a, Sodium 7-[3,4-di(4-fluorophenyl)-6-isopropylpyridazin-5-yl]-3(R),5(S)-dihydroxy-6(E)-heptenoate] |  |  | 1.3 nM | 25 nM
